PMC5522267, “Targeting PEPT1: a novel strategy to improve the antitumor efficacy of doxorubicin in human hepatocellular carcinoma therapy” (Oncotarget, 2017)
Structures can show the parent of a compound that is named as a salt. Where two headings read alike, the source gives them in different places. Marks after values point to notes of the source that are not given here.

Key:
[1] = Cardiac indexes, Bel-7402 HCC mice; type: in vivo, nude mice; details: high dose, after treatment
Bel-7402 HCC = details: for Inhibition rate: from tumor weight vs control
Excerpt: (§1) An animal model of HCC cells (Bel-7402, HepG2) transplanted into nude mice was established according to the method described in ref. 10.

HepG2 HCC = system: HepG2 HCC
Excerpt: as §1

[2] = Cardiac indexes, HepG2 HCC mice; type: in vivo, nude mice; details: low dose, after treatment
HepG2 [3] = assay: Drug concentration in tumor cells by HPLC, HepG2; type: cell-based, human; details: incubated 2 hours
Method: (§2) When the density of HCC cells reached to 3 × 10^6/ml, they were trypsinized and centrifuge (4°C, 800rpm, 5min), then discarded the supernatant, dropping medium 3 ml and evenly mixed. Cell suspension was divided into three groups (control group, Doxorubicin-tripeptide conjugate group and Doxorubicin group). The drug concentration was 0.01 mg/ml for cultured 2 hours avoiding light. Then the cells obtained by centrifugation were proceeded by the following steps: washed 3 times with 1 ml normal saline, added 0.5 ml ultra pure water (Millipore), broken by ultrasonic wave, drooped in acetonitrile (Tianjin Concord Technology Co. Ltd, China) 0.5 ml, mixed, ultrasonic oscillation for 10 mins, centrifuge (1200 rpm, 15 min), take the supernatant, filtration with filter membrane, take 20 μl for HPLC analysis (Agilent 1100 HPLC system, USA).
(§3) Chromatographic conditions were as follows: chromatographic column: DIONEX Acclaim 120 C18 (2.1 × 250 mm, 5 μm 120A), Mobile phase: Acetonitrile-0.2%NaH2PO4 aqueous solution (35: 65), Velocity: 0.35 ml/min, column temperature: 30°C, DAD, 254 nm, sample size: 20 μl. […] According to the chromatographic condition, the retention time (tR), peak position time, chromatographic behavior, resolution (R), the minimum detectable concentration and the intracellular drug concentration of these two drugs were detected in turn.

[4] = HCC mice, both dose groups
Method: After the HCC mice model was established, the nude mice were randomly assigned to three groups: Group A (control group: administration with normal saline 0.2 ml every time), group B (administration with Doxorubicin-tripeptide conjugate) and group C (administration with Doxorubicin). […] Treatment was conducted every 3 weeks for 5 weeks. Pay close attention to the general condition of the mice and their subcutaneous tumor and draw survivorship curve. The mice were weighed every 3 days and tumor volume was measured with a digital caliper using the formula: volume = (1/6).π. length × width × height. At the end of the experiment, tumor weight and volume was measured to obtained the tumor inhibitory rate and actual volume, which were calculated by the follow formula respectively: tumor inhibitory rate = (The average tumor weight of control group-experimental group)/control group × 100 %. volume = (1/6).π. length × width × height.
After the course of administration, mice were sacrificed, then the blood was collected to detect relevant indexes including quantitative serum protein, blood routine, myocardial enzymes (CK, CK-MB, LDH, AST), GSH-PX, MDA and SOD, the bone marrow taken to make bone marrow smear. What's more, the tumor, liver, jejunum and heart tissue of mice were dissected firstly for Small Animal Imaging (KODAK IS in-vivo FX, Kodak), and secondly were placed in the 10% Formaldehyde solution to prepare paraffin section, HE staining for histological examination. […] The tests of CK, CK-MB, LDH, AST, GSH-PX, MDA and SOD were completed in accordance with instructions strictly (Jiancheng Bioengineering Institute, Nanjing, China).

Caco2 [5] = assay: Drug concentration in tumor cells by HPLC, Caco2; type: cell-based, human; details: incubated 2 hours
[6] = Blood routine, HepG2 HCC mice; type: in vivo, nude mice; details: low dose, after treatment
[7] = Blood routine, Bel-7402 HCC mice; type: in vivo, nude mice; details: high dose, after treatment
Bel-7402 [8] = assay: Drug concentration in tumor cells by HPLC, Bel-7402; type: cell-based, human; details: incubated 2 hours
Method: as §2, §3

HepG2 [9] = assay: cells; type: cell-based, human; details: Homo sapiens, HepG2, given as fraction, read-out: Inhibitory effect by MTT
Method: (§4) Cells in the growth log phase were seeded in 96-well plate (200 ul/well) with density 8×10^3/well for 24 hours, then the drugs were added. The concentration of Doxorubicin-tripeptide conjugate was 0.005 mg/ml, 0.01 mg/ml, 0.02 mg/ml, 0.04 mg/ml, 0.06 mg/ml in turn, while Doxorubicin followed by 0.005 mg/ml, 0.01 mg/ml, 0.02 mg/ml, 0.04 mg/ml, 0.06 mg/ml with a same dosing volume 100 μl. Each concentration group included five equal wells and was provided with a control well of medium alone as a negative control. Add 20 μl of MTT Reagent ( 5 mg/ml, Sigma) to each well, including controls and continue to be incubated at 37°C for 4 hours. Remove the supernatant, drop plus DMSO (200 μl/well) and measure the OD value in each well, including the blanks, at 490 nm by a Multi-Mode Reader (BioTek, Synergy 2, USA). To calculate the inhibitory rate and the half maximal inhibitory concentration (IC50) according to the formula: Inhibitory rate =(1-( the dosing group OD/the control group OD )) × 100%, IC50 = lg^-1 (Xm-i (ΣP-0.5)) (Xm: the logarithm of maximum concentration, I: the logarithm of maximum dose/ adjacent dose, P: the sum of each group inhibitory rate, Pm: the maximum inhibitory rate, Pn: the minimum inhibitory rate ).

Bel-7402 [10] = assay: cells; type: cell-based, human; details: Homo sapiens
Method: as §4

Caco2 [11] = assay: cells; type: cell-based, human; details: Homo sapiens, Caco-2
Method: as §4

**Q.** Which AST [1] does the source give for `COc1cccc2c1C(=O)c1c(O)c3c(c(O)c1C2=O)C[C@@](O)(C(=O)CO)C[C@@H]3O[C@H]1C[C@H](N)[C@H](O)[C@H](C)O1` [Doxorubicin, Doxorubicin hydrochloride] here?
**A.** The AST was 1400.83 ± 506.35^a U/L.

**Q.** What about the CK [1] of the same compound?
**A.** Its CK is 1357.83 ± 504.33^ac U/L.

**Q.** And the CK-Mb [1]?
**A.** Its CK-Mb is 823.17 ± 342.53 U/L.

**Q.** And the GSH-PX [1]?
**A.** Its GSH-PX is 462.36 ± 100.90^a U.

**Q.** What about the LDH [1] of the same compound?
**A.** Its LDH is 5811.67 ± 3290.44 U/L.

**Q.** What about the MDA [1] of the same compound?
**A.** Its MDA is 3.43 ± 0.35^a nmol/mg.

**Q.** And the SOD [1]?
**A.** Its SOD is 151.60 ± 18.08^a U/mg.

**Q.** And the median survival time (Bel-7402 HCC; Bel-7402, high dose group)?
**A.** Its median survival time is 25.5 days.

**Q.** What about the deaths during treatment (Bel-7402 HCC; Bel-7402, high dose group, 5W) of the same compound?
**A.** The deaths during treatment was 1 death and 2 deaths and 1 death in the treatment of 2W+, 3W+ and 4W+ respectively.

**Q.** What about the “Tumor volume, Before treatment” value (Bel-7402 HCC; Bel-7402 HCC mice, baseline) of the same compound?
**A.** The value was 0.38 ± 0.28 cm^2.

**Q.** And the “Tumor volume (third column, no sub-head; actual volume at end of experiment)” value (Bel-7402 HCC; Bel-7402 HCC mice, high dose)?
**A.** The value was 0.27 ± 0.16 cm^2.

**Q.** What about the “Tumor volume, After treatment” value (Bel-7402 HCC; Bel-7402 HCC mice, high dose: Doxorubicin 60 mg/m^2, conjugate 300 mg/m^2) of the same compound?
**A.** Its value is 0.42 ± 0.33 cm^2.

**Q.** What about the Tumor weight (Bel-7402 HCC; Bel-7402 HCC mice, high dose, end of treatment) of the same compound?
**A.** Its Tumor weight is 1.30 ± 0.41 g.

**Q.** What about the Inhibition rate (Bel-7402 HCC; Bel-7402 HCC mice, high dose) of the same compound?
**A.** The Inhibition rate was 32.35%.

**Q.** What about the Inhibition rate (Bel-7402 HCC; Bel-7402 HCC mice, high dose, listed as C) of the same compound?
**A.** Its Inhibition rate is 32.35^c %.

**Q.** What about the “Mice weight, Before treatment” value (Bel-7402 HCC; mouse, in vivo) of the same compound?
**A.** Its value is 23.15 ± 1.60 g.

**Q.** What about the median survival time (HepG2 HCC; HepG2, low dose group) of the same compound?
**A.** The median survival time was 26.5 days.

**Q.** And the deaths during treatment (HepG2 HCC; HepG2, low dose group, 5W)?
**A.** Its deaths during treatment is 3 deaths and 1 death respectively in the treatment of 3W+ and 4W+.

**Q.** And the “Tumor volume, Before treatment” value (HepG2 HCC; HepG2 HCC mice, baseline)?
**A.** Its value is 0.32 ± 0.30 cm^2.

**Q.** And the “Tumor volume (third column, no sub-head; actual volume at end of experiment)” value (HepG2 HCC; HepG2 HCC mice, low dose)?
**A.** The value was 0.50 ± 0.46 cm^2.

**Q.** And the “Tumor volume, After treatment” value (HepG2 HCC; HepG2 HCC mice, low dose: Doxorubicin 40 mg/m^2, conjugate 200 mg/m^2)?
**A.** Its value is 0.64 ± 0.61 cm^2.

**Q.** And the Tumor weight (HepG2 HCC; HepG2 HCC mice, low dose, end of treatment)?
**A.** The Tumor weight was 1.66 ± 0.98 g.

**Q.** What about the “Mice weight, Before treatment” value (HepG2 HCC; mouse, in vivo) of the same compound?
**A.** Its value is 21.23 ± 4.97 g.

**Q.** What about the AST [2] of the same compound?
**A.** Its AST is 989.25 ± 145.74 U/L.

**Q.** And the CK [2]?
**A.** Its CK is 1160.50 ± 164.82 U/L.

**Q.** What about the CK-Mb [2] of the same compound?
**A.** The CK-Mb was 797.00 ± 155.90^a U/L.

**Q.** And the GSH-PX [2]?
**A.** Its GSH-PX is 515.57 ± 146.57^a U.

**Q.** What about the LDH [2] of the same compound?
**A.** Its LDH is 6958.50 ± 991.50 U/L.

**Q.** And the MDA [2]?
**A.** Its MDA is 3.97 ± 0.50 nmol/mg.

**Q.** What about the SOD [2] of the same compound?
**A.** Its SOD is 135.63 ± 16.22^a U/mg.

**Q.** And the “drug concentration in tumor cells” value (HepG2 [3])?
**A.** Its value is 2320 ± 30 ng/mL.

**Q.** What about the “change of mice weight during treatment” value [4] of the same compound?
**A.** The value was “the most significant”.

**Q.** What about the “drug concentration in tumor cells” value (Caco2 [5]) of the same compound?
**A.** Its value is 2730 ± 40 ng/mL.

**Q.** And the PLT [6]?
**A.** The PLT was 72.53 ± 25.46 ^a ×10^9/l.

**Q.** What about the RBC [6] of the same compound?
**A.** Its RBC is 7.55 ± 1.33 ×10^12/l.

**Q.** What about the WBC [6] of the same compound?
**A.** The WBC was 4.90 ± 3.60 ×10^9/l.

**Q.** What about the PLT [7] of the same compound?
**A.** Its PLT is 81.33 ± 27.50^a ×10^9/l.

**Q.** What about the RBC [7] of the same compound?
**A.** Its RBC is 6.90 ± 2.32 ×10^12/l.

**Q.** And the WBC [7]?
**A.** The WBC was 3.66 ± 2.58^a ×10^9/l.

**Q.** What about the “drug concentration in tumor cells” value (Bel-7402 [8]) of the same compound?
**A.** The value was 2420 ± 30 ng/mL.

**Q.** And the inhibition at 5 µg/mL (HepG2 [9]; drug 0.005 mg/ml)?
**A.** The inhibition at 5 µg/mL was 34.6%.

**Q.** And the inhibition at 10 µg/mL (HepG2 [9]; drug 0.01 mg/ml)?
**A.** Its inhibition at 10 µg/mL is 42.2%.

**Q.** What about the inhibition at 20 µg/mL (HepG2 [9]; drug 0.02 mg/ml) of the same compound?
**A.** Its inhibition at 20 µg/mL is 57.3%.

**Q.** And the inhibition at 40 µg/mL (HepG2 [9]; drug 0.04 mg/ml)?
**A.** Its inhibition at 40 µg/mL is 66.6%.

**Q.** What about the inhibition at 80 µg/mL (HepG2 [9]; drug 0.08 mg/ml) of the same compound?
**A.** The inhibition at 80 µg/mL was 87.9%.

**Q.** What about the IC50 (Bel-7402 [10]; Bel-7402, MTT, read-out: IC50) of the same compound?
**A.** The IC50 was 13.8 µg/mL.

**Q.** And the inhibition at 5 µg/mL (Bel-7402 [10]; Bel-7402, drug 0.005 mg/ml, given as fraction, read-out: Inhibitory effect by MTT)?
**A.** Its inhibition at 5 µg/mL is 38.8%.

**Q.** And the inhibition at 10 µg/mL (Bel-7402 [10]; Bel-7402, drug 0.01 mg/ml, given as fraction, read-out: Inhibitory effect by MTT)?
**A.** Its inhibition at 10 µg/mL is 49.1%.

**Q.** What about the inhibition at 20 µg/mL (Bel-7402 [10]; Bel-7402, drug 0.02 mg/ml, given as fraction, read-out: Inhibitory effect by MTT) of the same compound?
**A.** The inhibition at 20 µg/mL was 61.2%.

**Q.** And the inhibition at 40 µg/mL (Bel-7402 [10]; Bel-7402, drug 0.04 mg/ml, given as fraction, read-out: Inhibitory effect by MTT)?
**A.** The inhibition at 40 µg/mL was 70%.

**Q.** What about the inhibition at 80 µg/mL (Bel-7402 [10]; Bel-7402, drug 0.08 mg/ml, given as fraction, read-out: Inhibitory effect by MTT) of the same compound?
**A.** Its inhibition at 80 µg/mL is 79.8%.

**Q.** What about the IC50 (Caco2 [11]; Caco2, MTT, read-out: IC50) of the same compound?
**A.** Its IC50 is 15.4 µg/mL.

**Q.** What about the inhibition at 5 µg/mL (Caco2 [11]; Caco2, drug 0.005 mg/ml, given as fraction, read-out: Inhibitory effect by MTT) of the same compound?
**A.** Its inhibition at 5 µg/mL is 34.6%.

**Q.** What about the inhibition at 10 µg/mL (Caco2 [11]; Caco2, drug 0.01 mg/ml, given as fraction, read-out: Inhibitory effect by MTT) of the same compound?
**A.** Its inhibition at 10 µg/mL is 50%.

**Q.** What about the inhibition at 20 µg/mL (Caco2 [11]; Caco2, drug 0.02 mg/ml, given as fraction, read-out: Inhibitory effect by MTT) of the same compound?
**A.** Its inhibition at 20 µg/mL is 57.9%.

**Q.** And the inhibition at 40 µg/mL (Caco2 [11]; Caco2, drug 0.04 mg/ml, given as fraction, read-out: Inhibitory effect by MTT)?
**A.** Its inhibition at 40 µg/mL is 62.3%.

**Q.** And the inhibition at 80 µg/mL (Caco2 [11]; Caco2, drug 0.08 mg/ml, given as fraction, read-out: Inhibitory effect by MTT)?
**A.** Its inhibition at 80 µg/mL is 78.9%.
